Measured values reported in article PMC11277489, “Novel Piperazine Derivatives of Vindoline as Anticancer Agents” (International Journal of Molecular Sciences, 2024).

Each compound was assayed on RXF 393 (assay: NCI60 one-dose screen (10 μM), Renal Cancer). Settings: Homo sapiens; 10 μM; RXF 393, Renal Cancer; read-out: Growth percent rate.
Assay type: cell-based, human

Compound | activity at 10 µM [%]
CC[C@]12C=CCN3CC[C@@]4(c5ccc(OC)cc5N(C)[C@H]4[C@@](O)(C(=O)OC)[C@@H]1OC(=O)CCC(=O)N1CCN(Cc4ccc(C(F)(F)F)cc4)CC1)[C@@H]32 [Compound 29] | 10.2

What follows are compounds tested on A498 (assay: NCI60 one-dose screen (10 μM), Renal Cancer). Settings: Homo sapiens; 10 μM; A498, Renal Cancer; read-out: Growth percent rate.
Assay type: cell-based

Compound | activity at 10 µM [%]
CC[C@]12C=CCN3CC[C@@]4(c5ccc(OC)cc5N(C)[C@H]4[C@@](O)(C(=O)OC)[C@@H]1OC(=O)CCC(=O)N1CCN(Cc4ccc(C(F)(F)F)cc4)CC1)[C@@H]32 [Compound 29] | 20.1

What follows are compounds tested on SK-MEL-2 (assay: NCI60 one-dose screen (10 μM), Melanoma). Settings: Homo sapiens; 10 μM; SK-MEL-2, Melanoma; read-out: Growth percent rate.
Assay type: cell-based

Compound | activity at 10 µM [%]
CC[C@]12C=CCN3CC[C@@]4(c5ccc(OC)cc5N(C)[C@H]4[C@@](O)(C(=O)OC)[C@@H]1OC(=O)CCC(=O)N1CCN(Cc4ccc(C(F)(F)F)cc4)CC1)[C@@H]32 [Compound 29] | -63.4

The compounds below were run on HL-60(TB) (assay: NCI60 one-dose screen (10 μM), Leukemia). Settings: Homo sapiens; 10 μM; HL-60(TB), Leukemia; read-out: Growth percent rate.
Assay type: cell-based

Compound | activity at 10 µM [%]
CC[C@]12C=CCN3CC[C@@]4(c5ccc(OC)cc5N(C)[C@H]4[C@@](O)(C(=O)OC)[C@@H]1OC(=O)CCC(=O)N1CCN(Cc4ccc(C(F)(F)F)cc4)CC1)[C@@H]32 [Compound 29] | -58.2

The compounds below were run on MOLT-4 (assay: NCI60 one-dose screen (10 μM), Leukemia). Settings: Homo sapiens; 10 μM; MOLT-4, Leukemia; read-out: Growth percent rate.
Assay type: cell-based, human

Compound | activity at 10 µM [%]
CC[C@]12C=CCN3CC[C@@]4(c5ccc(OC)cc5N(C)[C@H]4[C@@](O)(C(=O)OC)[C@@H]1OC(=O)CCC(=O)N1CCN(Cc4ccc(C(F)(F)F)cc4)CC1)[C@@H]32 [Compound 29] | -4.63

Each compound was assayed on U251 (assay: NCI60 one-dose screen (10 μM), CNS Cancer). Settings: Homo sapiens, U-251; 10 μM; U251, CNS Cancer; read-out: Growth percent rate.
Assay type: cell-based

Compound | activity at 10 µM [%]
CC[C@]12C=CCN3CC[C@@]4(c5ccc(OC)cc5N(C)[C@H]4[C@@](O)(C(=O)OC)[C@@H]1OC(=O)CCC(=O)N1CCN(Cc4ccc(C(F)(F)F)cc4)CC1)[C@@H]32 [Compound 29] | 19.1

What follows are compounds tested on OVCAR-8 (assay: NCI60 one-dose screen (10 μM), Ovarian Cancer). Settings: Homo sapiens; 10 μM; OVCAR-8, Ovarian Cancer; read-out: Growth percent rate.
Assay type: cell-based

Compound | activity at 10 µM [%]
CC[C@]12C=CCN3CC[C@@]4(c5ccc(OC)cc5N(C)[C@H]4[C@@](O)(C(=O)OC)[C@@H]1OC(=O)CCC(=O)N1CCN(Cc4ccc(C(F)(F)F)cc4)CC1)[C@@H]32 [Compound 29] | 23.4

What follows are compounds tested on NCI-H460 (assay: NCI60 one-dose screen (10 μM), Non-small Cell Lung Cancer). Settings: Homo sapiens; 10 μM; NCI-H460, Non-small Cell Lung Cancer; read-out: Growth percent rate.
Assay type: cell-based

Compound | activity at 10 µM [%]
CC[C@]12C=CCN3CC[C@@]4(c5ccc(OC)cc5N(C)[C@H]4[C@@](O)(C(=O)OC)[C@@H]1OC(=O)CCC(=O)N1CCN(Cc4ccc(C(F)(F)F)cc4)CC1)[C@@H]32 [Compound 29] | -11.4

These compounds were tested on MCF7 (assay: NCI60 one-dose screen (10 μM), Breast Cancer). Settings: Homo sapiens; 10 μM; MCF7, Breast Cancer; read-out: Growth percent rate.
Assay type: cell-based

Compound | activity at 10 µM [%]
CC[C@]12C=CCN3CC[C@@]4(c5ccc(OC)cc5N(C)[C@H]4[C@@](O)(C(=O)OC)[C@@H]1OC(=O)CCC(=O)N1CCN(Cc4ccc(C(F)(F)F)cc4)CC1)[C@@H]32 [Compound 29] | 10.9

What follows are compounds tested on K-562 (assay: NCI60 one-dose screen (10 μM), Leukemia). Settings: Homo sapiens, K562; 10 μM; K-562, Leukemia; read-out: Growth percent rate.
Assay type: cell-based

Compound | activity at 10 µM [%]
CC[C@]12C=CCN3CC[C@@]4(c5ccc(OC)cc5N(C)[C@H]4[C@@](O)(C(=O)OC)[C@@H]1OC(=O)CCC(=O)N1CCN(Cc4ccc(C(F)(F)F)cc4)CC1)[C@@H]32 [Compound 29] | -12.5

The compounds below were run on ACHN (assay: NCI60 one-dose screen (10 μM), Renal Cancer). Settings: Homo sapiens, 10 μM, Renal Cancer, read-out: Growth percent rate.
Assay type: cell-based

Compound | activity at 10 µM [%]
CC[C@]12C=CCN3CC[C@@]4(c5ccc(OC)cc5N(C)[C@H]4[C@@](O)(C(=O)OC)[C@@H]1OC(=O)CCC(=O)N1CCN(Cc4ccc(C(F)(F)F)cc4)CC1)[C@@H]32 [Compound 29] | 3.7

The compounds below were run on MALME-3M (assay: NCI60 one-dose screen (10 μM), Melanoma). Settings: Homo sapiens; 10 μM; MALME-3M, Melanoma; read-out: Growth percent rate.
Assay type: cell-based

Compound | activity at 10 µM [%]
CC[C@]12C=CCN3CC[C@@]4(c5ccc(OC)cc5N(C)[C@H]4[C@@](O)(C(=O)OC)[C@@H]1OC(=O)CCC(=O)N1CCN(Cc4ccc(C(F)(F)F)cc4)CC1)[C@@H]32 [Compound 29] | -26.5

What follows are compounds tested on EKVX (assay: NCI60 one-dose screen (10 μM), Non-small Cell Lung Cancer). Settings: Homo sapiens, 10 μM, Non-small Cell Lung Cancer, read-out: Growth percent rate.
Assay type: cell-based

Compound | activity at 10 µM [%]
CC[C@]12C=CCN3CC[C@@]4(c5ccc(OC)cc5N(C)[C@H]4[C@@](O)(C(=O)OC)[C@@H]1OC(=O)CCC(=O)N1CCN(Cc4ccc(C(F)(F)F)cc4)CC1)[C@@H]32 [Compound 29] | 25.4

The compounds below were run on 786–0 (assay: NCI60 one-dose screen (10 μM), Renal Cancer). Settings: Homo sapiens; 10 μM; 786-0, Renal Cancer; read-out: Growth percent rate.
Assay type: cell-based

Compound | activity at 10 µM [%]
CC[C@]12C=CCN3CC[C@@]4(c5ccc(OC)cc5N(C)[C@H]4[C@@](O)(C(=O)OC)[C@@H]1OC(=O)CCC(=O)N1CCN(Cc4ccc(C(F)(F)F)cc4)CC1)[C@@H]32 [Compound 29] | 11.9

Each compound was assayed on OVCAR-4 (assay: NCI60 one-dose screen (10 μM), Ovarian Cancer). Settings: Homo sapiens; 10 μM; OVCAR-4, Ovarian Cancer; read-out: Growth percent rate.
Assay type: cell-based

Compound | activity at 10 µM [%]
CC[C@]12C=CCN3CC[C@@]4(c5ccc(OC)cc5N(C)[C@H]4[C@@](O)(C(=O)OC)[C@@H]1OC(=O)CCC(=O)N1CCN(Cc4ccc(C(F)(F)F)cc4)CC1)[C@@H]32 [Compound 29] | 10.5

These compounds were tested on RPMI-8226 (assay: NCI60 one-dose screen (10 μM), Leukemia). Settings: Homo sapiens; 10 μM; RPMI-8226, Leukemia; read-out: Growth percent rate.
Assay type: cell-based

Compound | activity at 10 µM [%]
CC[C@]12C=CCN3CC[C@@]4(c5ccc(OC)cc5N(C)[C@H]4[C@@](O)(C(=O)OC)[C@@H]1OC(=O)CCC(=O)N1CCN(Cc4ccc(C(F)(F)F)cc4)CC1)[C@@H]32 [Compound 29] | -14.2

What follows are compounds tested on HOP-62 (assay: NCI60 one-dose screen (10 μM), Non-small Cell Lung Cancer). Settings: Homo sapiens; 10 μM; HOP-62, Non-small Cell Lung Cancer; read-out: Growth percent rate.
Assay type: cell-based

Compound | activity at 10 µM [%]
CC[C@]12C=CCN3CC[C@@]4(c5ccc(OC)cc5N(C)[C@H]4[C@@](O)(C(=O)OC)[C@@H]1OC(=O)CCC(=O)N1CCN(Cc4ccc(C(F)(F)F)cc4)CC1)[C@@H]32 [Compound 29] | 22

Each compound was assayed on SK-MEL-28 (assay: NCI60 one-dose screen (10 μM), Melanoma). Settings: Homo sapiens; 10 μM; SK-MEL-28, Melanoma; read-out: Growth percent rate.
Assay type: cell-based

Compound | activity at 10 µM [%]
CC[C@]12C=CCN3CC[C@@]4(c5ccc(OC)cc5N(C)[C@H]4[C@@](O)(C(=O)OC)[C@@H]1OC(=O)CCC(=O)N1CCN(Cc4ccc(C(F)(F)F)cc4)CC1)[C@@H]32 [Compound 29] | 7.72

What follows are compounds tested on NCI-H23 (assay: NCI60 one-dose screen (10 μM), Non-small Cell Lung Cancer). Settings: Homo sapiens; 10 μM; NCI-H23, Non-small Cell Lung Cancer; read-out: Growth percent rate.
Assay type: cell-based

Compound | activity at 10 µM [%]
CC[C@]12C=CCN3CC[C@@]4(c5ccc(OC)cc5N(C)[C@H]4[C@@](O)(C(=O)OC)[C@@H]1OC(=O)CCC(=O)N1CCN(Cc4ccc(C(F)(F)F)cc4)CC1)[C@@H]32 [Compound 29] | 29.4

The compounds below were run on 60 human tumor cell lines (NCI60) (assay: NCI60 one-dose screen (10 μM), whole panel). Settings: 10 μM; mean over 60 human cancer cell lines; read-out: Growth percent rate, Mean.
Assay type: cell-based

Compound | activity at 10 µM [%]
CC[C@]12C=CCN3CC[C@@]4(c5ccc(OC)cc5N(C)[C@H]4[C@@](O)(C(=O)OC)[C@@H]1OC(=O)CCC(=O)N1CCN(Cc4ccc(C(F)(F)F)cc4)CC1)[C@@H]32 [Compound 29] | -1.41

What follows are compounds tested on HCT-15 (assay: NCI60 one-dose screen (10 μM), Colon Cancer). Settings: Homo sapiens; 10 μM; HCT-15, Colon Cancer; read-out: Growth percent rate.
Assay type: cell-based

Compound | activity at 10 µM [%]
CC[C@]12C=CCN3CC[C@@]4(c5ccc(OC)cc5N(C)[C@H]4[C@@](O)(C(=O)OC)[C@@H]1OC(=O)CCC(=O)N1CCN(Cc4ccc(C(F)(F)F)cc4)CC1)[C@@H]32 [Compound 29] | 15
